Test results reported in ChEMBL document CHEMBL1143765 (Science, 2007).
Active and inactive are the calls of the source. The rule behind the calls is not given here.

How the values were obtained:
[1] = Displacement of [3H]leucine from Aquifex aeolicus His-LeuT expressed in Escherichia coli by scintillation proximity assay
[2] = system: Aquifex aeolicus; assay: Inhibition of [3H]leucine transport activity of LeuT in proteoliposomes by scintillation proximity assay

SMILES	IC50 [1] [µM]	Activity [2]
CN(C)CCCN1c2ccccc2CCc2ccccc21 [IMIPRAMINE]	244	–
CNCCC(Oc1ccc(C(F)(F)F)cc1)c1ccccc1 (stereo not given) [FLUOXETINE]	858	–
CNCCCN1c2ccccc2CCc2ccccc21 [DESIPRAMINE]	80	Active
CNCCC=C1c2ccccc2CCc2ccccc21 [NORTRIPTYLINE]	75	–
